Results from patent US20120083522A1, “MODULATION OF INFLAMMATORY RESPONSES BY FACTOR XI” (Isis Pharmaceuitcals, inc., priority 2009, published 2012).
In the oligonucleotide strings, read from the 5' end, every base follows the letter of its sugar. An asterisk marks phosphorothioate; unmarked linkages are phosphodiester. Other units and linkages are bracketed, terminal groups are in braces. A string of capitals states the bases alone. e = 2'-O-(2-methoxyethyl) (MOE); [5mC] = 5-methylcytosine; d = 2'-deoxy (DNA)

Tests used:
human Factor XI mRNA = assay: Antisense inhibition in HepG2 cells by microwalk gapmers, 8,000 nM, electroporation (Example 14); assay type: cell-based; conditions: HepG2 cells, 8,000 nM
Protocol: These microwalk gapmers were tested in vitro. Cultured HepG2 cells at a density of 20,000 cells per well were transfected using electroporation with 8,000 nM antisense oligonucleotide. After a treatment period of approximately 24 hours, RNA was isolated from the cells and Factor XI mRNA levels were measured by quantitative real-time PCR. Factor XI mRNA levels were adjusted according to total RNA content, as measured by RIBOGREEN. Results are presented as percent inhibition of Factor XI, relative to untreated control cells.
The chimeric antisense oligonucleotides in Table 51 were designed as 5-10-5 MOE, 5-8-5 and 6-8-6 MOE gapmers. The first two listed gapmers in Table 51 are the original gapmers (ISIS 416850 and ISIS 416858) from which ISIS 445493-445543 were designed via microwalk, and are designated by an asterisk. The 5-10-5 gapmers are 20 nucleotides in length, wherein the central gap segment is comprised of ten 2′-deoxynucleotides and is flanked on both sides (in the 5′ and 3′ directions) by wings comprising five nucleotides each. The 5-8-5 gapmers are 18 nucleotides in length, wherein the central gap segment is comprised of eight 2′-deoxynucleotides and is flanked on both sides (in the 5′ and 3′ directions) by wings comprising five nucleotides each. The 6-8-6 gapmers are 20 nucleotides in length, wherein the central gap segment is comprised of eight 2′-deoxynucleotides and is flanked on both sides (in the 5′ and 3′ directions) by wings comprising six nucleotides each. For each of the motifs (5-10-5, 5-8-5 and 6-8-6), each nucleotide in the 5′ wing segment and each nucleotide in the 3′ wing segment has a 2′-MOE modification. The internucleoside linkages throughout each gapmer are phosphorothioate (P═S) linkages. All cytidine residues throughout each gapmer are 5-methylcytidines. “Human Target start site” indicates the 5′-most nucleotide to which the gapmer is targeted in the human sequence. “Human Target stop site” indicates the 3′-most nucleotide to which the gapmer is targeted in the human sequence. Each gapmer listed in Table 51 is targeted to SEQ ID NO: 1 (GENBANK Accession No. NM_000128.3). Each gapmer is Table 51 is also fully cross-reactive with the rhesus monkey Factor XI gene sequence, designated herein as SEQ ID NO: 274 (exons 1-15 GENBANK Accession No. NW—001118167.1). ‘Rhesus monkey start site’ indicates the 5′-most nucleotide to which the gapmer is targeted in the rhesus monkey sequence. ‘Rhesus monkey stop site’ indicates the 3′-most nucleotide to which the gapmer is targeted to the rhesus monkey sequence.

Factor XI protein = assay: Cynomolgus monkeys: plasma Factor XI protein ELISA (Example 29); assay type: in vivo; conditions: escalating doses 5, 10, 25 mg/kg s.c.
Protocol: (§1) Groups, each consisting of two male and three female monkeys, were injected subcutaneously with ISIS 416838, ISIS 416850, ISIS 416858, ISIS 416864, or ISIS 417002 in escalating doses. Antisense oligonucleotide was administered to the monkeys at 5 mg/kg three times per a week for week 1; 5 mg/kg twice per week for weeks 2 and 3; 10 mg/kg three times per week for week 4; 10 mg/kg twice per week for weeks 5 and 6; 25 mg/kg three times per week for week 7; and 25 mg/kg twice per week for weeks 8, 9, 10, 11, and 12. One control group, consisting of two male and three female monkeys, was injected subcutaneously with PBS according to the same dosing regimen. An additional experimental group, consisting of two male and three female monkeys, was injected subcutaneously with ISIS 416850 in a chronic, lower dose regimen. Antisense oligonucleotide was administered to the monkeys at 5 mg/kg three times per week for week 1; 5 mg/kg twice per week for week 2 and 3; 10 mg/kg three times per week for week 4; and 10 mg/kg twice per week for weeks 5 to 12. Body weights were measured weekly. Blood samples were collected 14 days and 5 days before the start of treatment and subsequently once per week for Factor XI protein activity analysis in plasma and measurement of various hematologic factors. On day 85, the monkeys were euthanized by exsanguination while under deep anesthesia, and organs harvested for further analysis.
Plasma samples from all monkey groups taken on different days were analyzed by a sandwich-style ELISA assay (Affinity Biologicals Inc.) using an affinity-purified polyclonal anti-Factor XI antibody as the capture antibody and a peroxidase-conjugated polyclonal anti-Factor XI antibody as the detecting antibody. Monkey plasma was diluted 1:50 for the assay. Peroxidase activity was expressed by incubation with the substrate o-phenylenediamine. The color produced was quantified using a microplate reader at 490 nm and was considered to be proportional to the concentration of Factor XI in the samples.
The results are presented in Table 122, expressed as percentage reduction relative to that of the PBS control.

[1] = Cynomolgus monkeys: body and organ weights (Example 29); assay type: in vivo; conditions: for Body weight: escalating doses 5, 10, 25 mg/kg s.c.
Protocol: as §1
Body weights were taken once weekly throughout the dosing regimen. […] Organ weights were taken after the animals were euthanized and livers, kidneys and spleens were harvested and weighed. […] The ISIS oligonucleotide, ISIS 416850, given with the chronic dose regimen is distinguished from the other oligonucleotides with an asterisk (*).

[2] = Cynomolgus monkeys: hematology assays (Example 29); assay type: in vivo
Protocol: as §1
The ISIS oligonucleotide, ISIS 416850, given with the chronic dose regimen is distinguished from the other oligonucleotides with an asterisk (*).

## 445493 (antisense eA*e[5mC]*eA*eG*eT*eT*dT*d[5mC]*dT*dG*dG*d[5mC]*dA*dG*eG*e[5mC]*e[5mC]*eT*e[5mC]*eG) [compound 445493]
Human Factor XI mRNA
  Percent inhibition of human Factor XI mRNA levels: 69%

## 445494 (antisense CACAGTTTCTGGCAGGCCTC; 6-8-6 gapmer chemistry, chemistry not fully specified) [compound 445494]
Human Factor XI mRNA
  Percent inhibition of human Factor XI mRNA levels: 85%

## 445495 (antisense GCACAGTTTCTGGCAGGCCT; 6-8-6 gapmer chemistry, chemistry not fully specified) [compound 445495]
Human Factor XI mRNA
  Percent inhibition of human Factor XI mRNA levels: 89%

## 445496 (antisense TGCACAGTTTCTGGCAGGCC; 6-8-6 gapmer chemistry, chemistry not fully specified) [compound 445496]
Human Factor XI mRNA
  Percent inhibition of human Factor XI mRNA levels: 87%

## 445497 (antisense GTGCACAGTTTCTGGCAGGC; 6-8-6 gapmer chemistry, chemistry not fully specified) [compound 445497]
Human Factor XI mRNA
  Percent inhibition of human Factor XI mRNA levels: 81%

## 445499 (antisense TGGTGCACAGTTTCTGGCAG; 6-8-6 gapmer chemistry, chemistry not fully specified) [compound 445499]
Human Factor XI mRNA
  Percent inhibition of human Factor XI mRNA levels: 75%

## 445500 (antisense TTGGTGCACAGTTTCTGGCA; 6-8-6 gapmer chemistry, chemistry not fully specified) [compound 445500]
Human Factor XI mRNA
  Percent inhibition of human Factor XI mRNA levels: 81%

## 445501 (antisense ATTGGTGCACAGTTTCTGGC; 6-8-6 gapmer chemistry, chemistry not fully specified) [compound 445501]
Human Factor XI mRNA
  Percent inhibition of human Factor XI mRNA levels: 83%

## 445502 (antisense e[5mC]*eA*eT*eT*eG*eG*dT*dG*d[5mC]*dA*d[5mC]*dA*dG*dT*eT*eT*e[5mC]*eT*eG*eG) [compound 445502]
Human Factor XI mRNA
  Percent inhibition of human Factor XI mRNA levels: 83%

## 445506 (antisense eA*e[5mC]*eG*eG*e[5mC]*eA*dT*dT*dG*dG*dT*dG*d[5mC]*dA*e[5mC]*eA*eG*eT*eT*eT) [compound 445506]
Human Factor XI mRNA
  Percent inhibition of human Factor XI mRNA levels: 86%

## 445507 (antisense eG*eA*e[5mC]*eG*eG*e[5mC]*dA*dT*dT*dG*dG*dT*dG*d[5mC]*eA*e[5mC]*eA*eG*eT*eT) [compound 445507]
Human Factor XI mRNA
  Percent inhibition of human Factor XI mRNA levels: 85%

## 445508 (antisense eG*eG*eA*e[5mC]*eG*eG*d[5mC]*dA*dT*dT*dG*dG*dT*dG*e[5mC]*eA*e[5mC]*eA*eG*eT) [compound 445508]
Human Factor XI mRNA
  Percent inhibition of human Factor XI mRNA levels: 81%

## 445509 (antisense e[5mC]*eG*eG*eA*e[5mC]*eG*dG*d[5mC]*dA*dT*dT*dG*dG*dT*eG*e[5mC]*eA*e[5mC]*eA*eG) [compound 445509]
Human Factor XI mRNA
  Percent inhibition of human Factor XI mRNA levels: 84%

## 445510 (antisense eG*e[5mC]*eG*eG*eA*e[5mC]*dG*dG*d[5mC]*dA*dT*dT*dG*dG*eT*eG*e[5mC]*eA*e[5mC]*eA) [compound 445510]
Human Factor XI mRNA
  Percent inhibition of human Factor XI mRNA levels: 88%

## 445511 (antisense eA*eG*e[5mC]*eG*eG*eA*d[5mC]*dG*dG*d[5mC]*dA*dT*dT*dG*eG*eT*eG*e[5mC]*eA*e[5mC]) [compound 445511]
Human Factor XI mRNA
  Percent inhibition of human Factor XI mRNA levels: 77%

## 445512 (antisense e[5mC]*eA*eG*e[5mC]*eG*eG*dA*d[5mC]*dG*dG*d[5mC]*dA*dT*dT*eG*eG*eT*eG*e[5mC]*eA) [compound 445512]
Human Factor XI mRNA
  Percent inhibition of human Factor XI mRNA levels: 79%

## 445513 (antisense eG*e[5mC]*eA*eG*e[5mC]*eG*dG*dA*d[5mC]*dG*dG*d[5mC]*dA*dT*eT*eG*eG*eT*eG*e[5mC]) [compound 445513]
Human Factor XI mRNA
  Percent inhibition of human Factor XI mRNA levels: 85%

## 445514 (antisense eG*eG*e[5mC]*eA*eG*e[5mC]*dG*dG*dA*d[5mC]*dG*dG*d[5mC]*dA*eT*eT*eG*eG*eT*eG) [compound 445514]
Human Factor XI mRNA
  Percent inhibition of human Factor XI mRNA levels: 81%

## 445515 (antisense eT*eG*eG*e[5mC]*eA*eG*d[5mC]*dG*dG*dA*d[5mC]*dG*dG*d[5mC]*eA*eT*eT*eG*eG*eT) [compound 445515]
Human Factor XI mRNA
  Percent inhibition of human Factor XI mRNA levels: 75%

## ISIS 417002: gapmer of Table 8 (antisense eG*eG*dT*dG*d[5mC]*dA*d[5mC]*dA*dG*dT*dT*dT*d[5mC]*dT*dG*eG*e[5mC]*eA*eG*eG)
Factor XI protein; day 8
  Inhibition of Factor XI protein relative to the PBS control: 0%
Factor XI protein; day 15
  Inhibition of Factor XI protein relative to the PBS control: 4%
Factor XI protein; day 22
  Inhibition of Factor XI protein relative to the PBS control: 2%
Factor XI protein; day 29
  Inhibition of Factor XI protein relative to the PBS control: 8%
Factor XI protein; day 36
  Inhibition of Factor XI protein relative to the PBS control: 8%
Factor XI protein; day 43
  Inhibition of Factor XI protein relative to the PBS control: 9%
Factor XI protein; day 50
  Inhibition of Factor XI protein relative to the PBS control: 13%
Factor XI protein; day 57
  Inhibition of Factor XI protein relative to the PBS control: 24%
Factor XI protein; day 64
  Inhibition of Factor XI protein relative to the PBS control: 26%
Factor XI protein; day 71
  Inhibition of Factor XI protein relative to the PBS control: 30%
Factor XI protein; day 78
  Inhibition of Factor XI protein relative to the PBS control: 22%
Factor XI protein; day 85
  Inhibition of Factor XI protein relative to the PBS control: 23%
Factor XI protein; day −5 (before treatment)
  Inhibition of Factor XI protein relative to the PBS control: 0%
Factor XI protein; day −14 (before treatment)
  Inhibition of Factor XI protein relative to the PBS control: 0%
[1]; after euthanasia
  Kidney weight: 15 g
  Liver weight: 51 g
  Spleen weight: 5 g
[1]; day 1
  Body weight: 2640 g
[1]; day 8
  Body weight: 2523 g
[1]; day 15
  Body weight: 2571 g
[1]; day 22
  Body weight: 2617 g
[1]; day 29
  Body weight: 2622 g
[1]; day 36
  Body weight: 2631 g
[1]; day 43
  Body weight: 2630 g
[1]; day 50
  Body weight: 2652 g
[1]; day 57
  Body weight: 2654 g
[1]; day 64
  Body weight: 2598 g
[1]; day 71
  Body weight: 2727 g
[1]; day 78
  Body weight: 2570 g
[2]; day 8
  platelet count: 435000 µL⁻¹
[2]; day 15
  platelet count: 410000 µL⁻¹
[2]; day 22
  platelet count: 377000 µL⁻¹
[2]; day 29
  platelet count: 410000 µL⁻¹
[2]; day 36
  platelet count: 415000 µL⁻¹
[2]; day 43
  platelet count: 393000 µL⁻¹
[2]; day 50
  platelet count: 389000 µL⁻¹
[2]; day 57
  platelet count: 403000 µL⁻¹
[2]; day 64
  platelet count: 436000 µL⁻¹
[2]; day 71
  platelet count: 490000 µL⁻¹
[2]; day 78
  platelet count: 432000 µL⁻¹
[2]; day 85
  platelet count: 418000 µL⁻¹
[2]; day −5
  platelet count: 466000 µL⁻¹
[2]; day −14
  platelet count: 442000 µL⁻¹
